The record followed here is PMC12645998, “Optimization of VE607 to generate analogs with improved neutralization activities against SARS-CoV-2 variants” (Journal of Virology, 2025).

pIC50: −log10 of the molar value. Values joined by “and” are separate entries in the source; they are usually repeats but may differ in a detail not shown here. Equal entries are not always repeated.

The test system of one data set is 293T-ACE2 cells. In words: Cell viability test (CellTiter-Glo), 293T-ACE2. The conditions noted are these: concentrations up to 100 µM, 48 h. In general terms: Cellular ATP, detected with luciferase, serves as a proxy for viable cell number.
Consider `CN(C)C[C@@H](O)COc1cc(Br)cc(OC[C@H](O)CN(C)C)c1` [Compound 27], for which the “Toxicity in 293T-ACE2 cells” value is given as “no toxicity”.
In the case of `CN1CCN(C[C@@H](O)COc2cc(Br)cc(OC[C@H](O)CN3CCN(C)CC3)c2)CC1` [Compound 30], the “Toxicity in 293T-ACE2 cells” value was “no toxicity”.

The test system of a further data set is SARS-CoV-2 XBB.1.5 Spike pseudovirus. The data set is described as follows: organism not typed. In kind it is cell-based. The conditions noted are these: read-out: IC50 XBB.1.5.
Regarding `CN(C)C[C@@H](O)COc1cc(Br)cc(OC[C@H](O)CN(C)C)c1` [Compound 27], the pIC50 is 5.98.
In the case of `CN1CCN(C[C@@H](O)COc2cc(Br)cc(OC[C@H](O)CN3CCN(C)CC3)c2)CC1` [Compound 30], the pIC50 was 5.98.

The test system of another data set is pseudoviral particles carrying SARS-CoV-1 S. In words: microbe, parasite or virus in culture. In kind it is cell-based. Particulars: Severe acute respiratory syndrome coronavirus, 293T/ACE2, read-out: IC50 SARS-CoV-1.
On to `CN(C)C[C@@H](O)COc1cc(Br)cc(OC[C@H](O)CN(C)C)c1` [Compound 27], for which the pIC50 is 6.21.
The same measure, in the same setting: to `CN1CCN(C[C@@H](O)COc2cc(Br)cc(OC[C@H](O)CN3CCN(C)CC3)c2)CC1` [Compound 30] belongs 5.70.

Staying with this data set, now noted: read-out: IC50 SARS-CoV-1.
`CN(C)C[C@@H](O)COc1cc(Br)cc(OC[C@H](O)CN(C)C)c1` [Compound 27]: the pIC50 was 6.20 and 6.03.
On to `CN1CCN(C[C@@H](O)COc2cc(Br)cc(OC[C@H](O)CN3CCN(C)CC3)c2)CC1` [Compound 30], for which the pIC50 was 5.88.

For a further data set, the system named is SARS-CoV-2 HK.3 Spike pseudovirus. The data set is described as follows: organism not typed. The conditions noted are these: read-out: IC50 HK.3. The data set is classed as cell-based.
On to `CN(C)C[C@@H](O)COc1cc(Br)cc(OC[C@H](O)CN(C)C)c1` [Compound 27], for which the pIC50 was 6.14.
Take `CN1CCN(C[C@@H](O)COc2cc(Br)cc(OC[C@H](O)CN3CCN(C)CC3)c2)CC1` [Compound 30]: the pIC50 was 6.27.

Another data set deals with pseudoviral particles carrying VSV-G. In words: microbe, parasite or virus in culture. The data set is classed as cell-based. The conditions noted are these: Vesicular stomatitis virus, 293T/ACE2, read-out: IC50 VSV-G.
`CN(C)C[C@@H](O)COc1cc(Br)cc(OC[C@H](O)CN(C)C)c1` [Compound 27]: the pIC50 is 4.28.
Turning to `CN1CCN(C[C@@H](O)COc2cc(Br)cc(OC[C@H](O)CN3CCN(C)CC3)c2)CC1` [Compound 30], the pIC50 is 4.09.

Staying with this data set, now noted: Vesicular stomatitis virus, 293T/ACE2, read-out: IC50 VSVG.
As to `CN(C)C[C@@H](O)COc1cc(Br)cc(OC[C@H](O)CN(C)C)c1` [Compound 27], the pIC50 was less than 4.00.
As to `CN1CCN(C[C@@H](O)COc2cc(Br)cc(OC[C@H](O)CN3CCN(C)CC3)c2)CC1` [Compound 30], the pIC50 was less than 4.00.

The subject of a further data set is SARS-CoV-2WA1-nLuc.
Assay: not given
On the set-up: species or system K18-hACE2 mice. Particulars: mouse, in vivo.
Take `CN(C)C[C@@H](O)COc1cc(Br)cc(OC[C@H](O)CN(C)C)c1` [Compound 27]: the “Protection / survival outcome” value is reported as “succumbed to virus-induced mortality” and the “Survival extended compared to the control group” value amounted to 1 days.

In a further data set the test system is SARS-CoV-2 EG.5.1 Spike pseudovirus. In words: organism not typed. The conditions noted are these: read-out: IC50 EG.5.1. In kind it is cell-based.
Turning to `CN(C)C[C@@H](O)COc1cc(Br)cc(OC[C@H](O)CN(C)C)c1` [Compound 27], the pIC50 is 5.95.
For `CN1CCN(C[C@@H](O)COc2cc(Br)cc(OC[C@H](O)CN3CCN(C)CC3)c2)CC1` [Compound 30], the pIC50 is 5.82.

System in a further data set: not given
Assay: not given
The conditions noted are these: both, K18-hACE2, mouse, in vivo.
Turning to `CN(C)C[C@@H](O)COc1cc(Br)cc(OC[C@H](O)CN(C)C)c1` [Compound 27], the Concentration in plasma is on record as ~ 1.5 µM.

Staying with this data set, now noted: mouse, in vivo.
In the case of `CN(C)C[C@@H](O)COc1cc(Br)cc(OC[C@H](O)CN(C)C)c1` [Compound 27], the Plasma retention result was “short plasma retention”.

Staying with this data set, now noted: mouse, in vivo, ip.
For the compound `CN(C)C[C@@H](O)COc1cc(Br)cc(OC[C@H](O)CN(C)C)c1` [Compound 27], the Brain penetration entry was “minimal penetration in the brain”.

The next data set concerns SARS-CoV-2 BA.2.86 Spike pseudovirus. In words: organism not typed. In kind it is cell-based. Particulars: read-out: IC50 BA.2.86.
Regarding `CN(C)C[C@@H](O)COc1cc(Br)cc(OC[C@H](O)CN(C)C)c1` [Compound 27], the pIC50 is 5.48.
As to `CN1CCN(C[C@@H](O)COc2cc(Br)cc(OC[C@H](O)CN3CCN(C)CC3)c2)CC1` [Compound 30], the pIC50 is 5.45.

The subject of a further data set is authentic SARS-CoV-2 XBB.1. In words: microbe, parasite or virus in culture. In kind it is cell-based. Particulars: Severe acute respiratory syndrome coronavirus 2, Vero C1008, read-out: IC50 authentic SARS-CoV-2 XBB.1.
For `CN(C)C[C@@H](O)COc1cc(Br)cc(OC[C@H](O)CN(C)C)c1` [Compound 27], the pIC50 is 4.62.
For `CN1CCN(C[C@@H](O)COc2cc(Br)cc(OC[C@H](O)CN3CCN(C)CC3)c2)CC1` [Compound 30], the pIC50 is 4.42.

For the next data set, the system named is SARS-CoV-2 B.1.1.7 Spike pseudovirus. The data set is described as follows: organism not typed. The data set is classed as cell-based. Particulars: read-out: IC50 B.1.1.7.
In the case of `CN(C)C[C@@H](O)COc1cc(Br)cc(OC[C@H](O)CN(C)C)c1` [Compound 27], the pIC50 is 5.95.
In the case of `CN1CCN(C[C@@H](O)COc2cc(Br)cc(OC[C@H](O)CN3CCN(C)CC3)c2)CC1` [Compound 30], the pIC50 is 5.90.

A further data set has as its system SARS-CoV-2 XEC Spike pseudovirus. In words: organism not typed. The data set is classed as cell-based. Particulars: read-out: IC50 XEC.
As for `CN(C)C[C@@H](O)COc1cc(Br)cc(OC[C@H](O)CN(C)C)c1` [Compound 27], the pIC50 was 5.75.
For `CN1CCN(C[C@@H](O)COc2cc(Br)cc(OC[C@H](O)CN3CCN(C)CC3)c2)CC1` [Compound 30], the pIC50 is 5.51.

The subject of another data set is Vero-E6 cells. The data set is described as follows: Cell viability test (CellTiter-Glo), Vero-E6. The conditions noted are these: concentrations up to 100 µM, 48 h.
For `CN(C)C[C@@H](O)COc1cc(Br)cc(OC[C@H](O)CN(C)C)c1` [Compound 27], the “Toxicity in Vero-E6 cells” value is recorded as “no toxicity”.
For the compound `CN1CCN(C[C@@H](O)COc2cc(Br)cc(OC[C@H](O)CN3CCN(C)CC3)c2)CC1` [Compound 30], the “Toxicity in Vero-E6 cells” value is listed as “no toxicity”.

The next data set relates to SARS-CoV-2 KP.3.1.1 Spike pseudovirus. The data set is described as follows: organism not typed. In kind it is cell-based. Particulars: read-out: IC50 KP.3.1.1.
With `CN(C)C[C@@H](O)COc1cc(Br)cc(OC[C@H](O)CN(C)C)c1` [Compound 27], the pIC50 was 5.62.
Take `CN1CCN(C[C@@H](O)COc2cc(Br)cc(OC[C@H](O)CN3CCN(C)CC3)c2)CC1` [Compound 30]: the pIC50 was 5.67.

A further data set relates to SARS-CoV-2 BA.4/5 Spike pseudovirus. In words: organism not typed. The data set is classed as cell-based. The conditions noted are these: read-out: IC50 BA.4/5.
Take `CN(C)C[C@@H](O)COc1cc(Br)cc(OC[C@H](O)CN(C)C)c1` [Compound 27]: the pIC50 was 5.84.
For `CN1CCN(C[C@@H](O)COc2cc(Br)cc(OC[C@H](O)CN3CCN(C)CC3)c2)CC1` [Compound 30], the pIC50 was 5.31.

The next data set relates to SARS-CoV-2 JN.1 Spike pseudovirus. In words: organism not typed. The conditions noted are these: read-out: IC50 JN.1. In kind it is cell-based.
On to `CN(C)C[C@@H](O)COc1cc(Br)cc(OC[C@H](O)CN(C)C)c1` [Compound 27], for which the pIC50 is 5.87.
In the case of `CN1CCN(C[C@@H](O)COc2cc(Br)cc(OC[C@H](O)CN3CCN(C)CC3)c2)CC1` [Compound 30], the pIC50 was 5.41.

The test system of a further data set is SARS-CoV-2 XBB.1.16 Spike pseudovirus. In words: organism not typed. In kind it is cell-based. Particulars: read-out: IC50 XBB.1.16.
With `CN(C)C[C@@H](O)COc1cc(Br)cc(OC[C@H](O)CN(C)C)c1` [Compound 27], the pIC50 was 5.74.
On the same count and under the same terms, under `CN1CCN(C[C@@H](O)COc2cc(Br)cc(OC[C@H](O)CN3CCN(C)CC3)c2)CC1` [Compound 30] stands 5.85.

A further data set deals with pseudoviral particles bearing the Spike glycoprotein from SARS-CoV-2. The data set is described as follows: microbe, parasite or virus in culture. In kind it is cell-based. The conditions noted are these: Severe acute respiratory syndrome coronavirus 2, 293T/ACE2, read-out: IC50 SARS-CoV-2, Table 1; pseudovirus, 293T-ACE2 cells, compounds up to 100 µM.
Consider `CN(C)C[C@@H](O)COc1cc(Br)cc(OC[C@H](O)CN(C)C)c1` [Compound 27], for which the pIC50 is 6.36.
Consider `CN1CCN(C[C@@H](O)COc2cc(Br)cc(OC[C@H](O)CN3CCN(C)CC3)c2)CC1` [Compound 30], for which the pIC50 was 5.83.

Staying with this data set, now noted: read-out: IC50 SARS-CoV-2; Table 1; pseudovirus, 293T-ACE2 cells, compounds up to 100 µM.
`CN(C)C[C@@H](O)COc1cc(Br)cc(OC[C@H](O)CN(C)C)c1` [Compound 27]: the pIC50 is 6.36.

The test system of another data set is SARS-CoV-2 (Wuhan strain) ectodomain SΔTM trimers.
Assay: not given
Particulars: 0.1 µM labeled Spike; 50 µM compound, 0.3 µM CV3-13, 0.6 µM ACE2; unbound Spike 40% ± 2%.
With `CN(C)C[C@@H](O)COc1cc(Br)cc(OC[C@H](O)CN(C)C)c1` [Compound 27], the RBD-up conformation occupancy is listed as 55% ± 2%.
